Experimental data as given in patent US4490369A, “Benzazepine derivatives, their pharmaceutical compositions and method of use” (Dr. Karl Thomae Gesellschaft mit beschrankter Haftung, priority 1981, dated 1984).
Where a name gives a salt, the structure may show the parent alone.

Tests used:
cats = assay: Effect on heart rate in cats; format: in vivo, cat; conditions: anesthetized cats, 1.0 mg/kg i.v.; for Half-life: heart rate effect
Experimental: The cats were anesthetized with Nembutal (30 mg/kg i.p.) and chloralose urethane (40 mg/ml of chloralose+200 mg/ml of urethane, as required). The compound to be tested was injected in aqueous solution into the vena saphena or into the duodenum. The heart rate was recorded before and after the admiministration of the substance by means of a Grass tachograph from the electrocardiagram (taken from and chest wall) on a Grass polygraph.

Acute toxicity in mice = conditions: mouse, in vivo, observation period 14 days
Experimental: The acute toxicity of the test compound was determined in mice (observationperiod: 14 days) after intravenous and peroral administration: […]

rats = assay: Effect on heart rate in rats; format: in vivo, rat; conditions: anesthetized rats
Experimental: The effect of the test substances on heart rate was investigated in two rats with an average weight of 250 to 300 gm for each dose. The rats were anesthetized with pentobarbital (50 mg/kg i.p. and 20 mg/kg s.c.). The test substances were injected in aqueous solution into the jugular vein (0.1 ml/100 gm). The blood pressure was measured using a cannula inserted in a carotid artery and the heart rate was recorded from an ECG (IInd or IIIrd reading) obtained using needle electrodes. The heart rate of the animals in the control period was between 350 and 400 beats per minute (b/min).

Compound | Reduction in Heart Rate (cats) | Half-life (cats) | Reduction in Heart Rate (20 Minutes) After Application of the Compound (rats; 1.0 mg/kg i.v.) | Reduction in Heart Rate (20 Minutes) After Application of the Compound (rats; 2.5 mg/kg i.v.) | Reduction in Heart Rate (20 Minutes) After Application of the Compound (rats; 5.0 mg/kg i.v.) | further results
COc1ccc(CCN(C)CCCN2CCc3cc(OC)c(OC)cc3CC2=O)cc1OC.Cl.Cl [A, 1-[7,8-Dimethoxy-1,3,4,5-tetrahydro-2H-3-benzazepin-2-on-3-yl]-3-[N-methyl-N-(2-{3,4-dimethoxy-phenyl}-ethyl)-amino]-propane dihydrochloride] | -55% | 2 h | – | – | – | LD50 at 336 h (Acute toxicity in mice; iv): 89 mg/kg; LD50 at 336 h (Acute toxicity in mice; po): 1350 mg/kg
COc1ccc(CCN(C)CCCN2C=Cc3cc(OC)c(OC)cc3CC2=O)cc1OC.Cl [B, 1-[7,8-Dimethoxy-1,3-dihydro-2H-3-benzazepin-2-on-3-yl]-3-[N-methyl-N-(2-{3,4-dimethoxy-phenyl}-ethyl)-amino]-propane hydrochloride] | -45% | 2 h | – | – | – | –
COc1ccc(CCN(C)CCCN2CCc3cc(OC)c(OC)cc3C(=O)C2=O)cc1OC [C, 1-[7,8-Dimethoxy-1,3,4,5-tetrahydro-2H-3-benzazepine-1,2-dion-3-yl]-3-[N-methyl-(2-}3,4-dimethoxy-phenyl}-ethyl)-amino]-propane hydrochloride] | -44% | 1.5 h | – | – | – | –
COc1ccc(CCN(C)CCCN2CCc3cc(OC)c(OC)cc3NC2=O)cc1OC [D, 1-[7,8-Dimethoxy-1,3,4,5-tetrahydro-2H-1,3-benzodiazepin-2-on-3-yl]-3-[N-methyl-(2-{3,4-dimethoxy-phenyl}-ethyl)-amino]-propane] | -41% | 1.33 h | – | – | – | –
COc1ccc(CCNCCCN2CCc3cc(OC)c(OC)cc3CC2=O)cc1OC.Cl [E, 1-[7,8-Dimethoxy-1,3,4,5-tetrahydro-2H-3-benzazepin-2-on-3-yl]-3-[N-(2-{3,4-dimethoxy-phenyl}-ethyl)-amino]-propane hydrochloride] | -45% | 1.5 h | – | – | – | –
COc1cc2c(cc1OC)CC(=O)N(CCCN(C)CCc1cc(Cl)c(N)c(Cl)c1)CC2 [F, 1-[7,8-Dimethoxy-1,3,4,5-tetrahydro-2H-3-benzazepin-2-on-3-yl]-3-[N-methyl-N-(2-{4-amino-3,5-dichloro-phenyl}-ethyl)-amino]-propane] | -51% | 2 h | – | – | – | –
COc1ccc(CCCN(C)CCCN2CCc3cc(OC)c(OC)cc3CC2=O)cc1OC.Cl [L, 1-[7,8-Dimethoxy-1,3,4,5-tetrahydro-2H-3-benzazepin-2-on-3-yl]-3-[N-methyl-N-(3-{3,4-dimethoxy-phenyl}-propyl)-amino]-propane hydrochloride] | – | – | -51 Beats/Minutes | -85 Beats/Minutes | -183 Beats/Minutes | –
COc1ccc(CCN(C)CCCN2CCc3cc(OC)c(OC)cc3CC2=S)cc1OC [M, 1-[7,8-Dimethoxy-1,3,4,5-tetrahydro-2H-3-benzazepin-2-thion-3-yl]-N-[N-methyl-N-(2-{3,4-dimethoxy-phenyl}-ethyl)-amino]-propane] | – | – | -73 Beats/Minutes | -134 Beats/Minutes | -255 Beats/Minutes | –
COc1ccc(C(O)CN(C)CCCN2CCc3cc(OC)c(OC)cc3CC2=O)cc1OC (stereo not shown) [N, 1-[7,8-Dimethoxy-1,3,4,5-tetrahydro-2H-3-benzazepin-2-on-3-yl]-3-[N-methyl-N-(2-hydroxy-2-{3,4-dimethoxyphenyl}-ethyl)-amino]-propane] | – | – | – | -137 Beats/Minutes | -173 Beats/Minutes | –
COc1ccc(CCN(C)CCCN2CCc3cc(OC)c(OC)cc3C(O)C2=O)cc1OC (stereo not shown) [O] | – | – | -83 Beats/Minutes | -73 Beats/Minutes | -117 Beats/Minutes | –
COc1cc2c(cc1OC)CC(=O)N(CCCN(C)CCc1ccc(N)c([N+](=O)[O-])c1)CC2 [P, 1-[7,8-Dimethoxy-1,3,4,5-tetrahydro-2H-3-benzazepin-2-on-3-yl]-3-[N-methyl-N-(2-{4-aino-3-nitro-phenyl}-ethyl)-amino]-propane hydrochloride] | – | – | – | – | -130 Beats/Minutes | –
COc1cc2c(cc1OC)CC(=O)N(CCCN(C)CCCCc1ccc(N(C)C)cc1)CC2 [Q, 1-[7,8-Dimethoxy-1,3,4,5-tatrahydro-2H-3-benzazepin-2-on-3-yl]-3-N-methyl-N-(4-{4-dimethylaino-phenyl}butyl)-amino]-propane hydrobromide] | – | – | -94 Beats/Minutes | -91 Beats/Minutes | -123 Beats/Minutes | –
COc1cc2c(cc1OC)CC(=O)N(CCCN(C)CCc1ccccc1)CC2.Cl.Cl [R, 1-[7,8-Dimethoxy-1,3,4,5-tetrahydro-2H-3-benzazepin-2-on-3-yl]-3-[N-methyl-N-(2-phenyl-ethyl)-amino]-propane dihydrochloride] | – | – | -80 Beats/Minutes | -110 Beats/Minutes | -135 Beats/Minutes | –
COc1cc(CCCCCN(C)CCCN2CCc3cc(OC)c(OC)cc3CC2=O)cc(OC)c1 [S, 1-[7,8-Dimethoxy-1,3,4,5-tetrahydro-2H-3-benzazepin-2-on-3-yl]-3-[N-methyl-N-(5-{3,5-dimethoxy-phenyl}-pentyl)-amino]-propane] | – | – | – | – | -18 Beats/Minutes | –
COc1cc2c(cc1OC)CC(=O)N(CCCN(C)CCCc1cc(Cl)c(N)c(Cl)c1)CC2 [T, 1-[7,8-Dimethoxy-1,3,4,5-tetrahydro-2H-3-benzazepin-2-on-3-yl]-3-[N-methyl-N-(3-{4-amino-3,5-dichlorophenyl}-propyl)-amino]-propane] | – | – | – | – | -175 Beats/Minutes | –
COc1ccc(CCN(C)CCCN2CCCc3cc(OC)c(OC)cc3C2=O)cc1OC [U, 1-[7,8-Dimethoxy-1,3,4,5-tetrahydro-5H-2-benzazepin-1-on-2-yl]-3-[N-methyl-N-(2-{3,4-dimethoxy-phenyl}-ethyl)-amino]-propane hydrochloride, reference compound] | -8.2% | 0.217 h | – | – | -18 Beats/Minutes | –
